Experimental data taken from patent US20260284055A1, “FGFR4 INHIBITOR COMPOSITION, PREPARATION METHOD THEREFOR AND PHARMACEUTICAL USE THEREOF” (Abbisko Therapeutics Co., Ltd., priority 2023, published 2026).

Columns and labels:
Type in all cases: physicochemical
[1] = Particle size distribution of active pharmaceutical ingredient (Malvern Mastersizer 2000)
Procedure: The active pharmaceutical ingredient was mechanically milled, and samples were taken at different milling time points. The particle size distribution was determined using a Malvern Mastersizer 2000 laser particle size analyzer, and the particle morphology was observed using a polarizing microscope. [table]

[2] = Hygroscopic weight gain (gravimetric method)
Procedure: Gravimetric method: The initial weight of a sample was measured, recorded as W1, and then the weight of the sample after being placed under high-humidity conditions for a certain period of time was measured, recorded as W2; the percentage of hygroscopic weight gain was calculated based on the weight difference, using the following calculation formula: (W2−W1)/W1*100%.
(§1) The inventors first conducted a study on the physicochemical properties of the active pharmaceutical ingredient. The specific procedures were as follows: The active pharmaceutical ingredient and different auxiliary materials were mixed at different ratios and then placed under different conditions; the samples were taken out at different time points and then observed for appearance, hygroscopic weight gain, active pharmaceutical ingredient content, related substance content, etc.

[3] = Content determination of active pharmaceutical ingredient (HPLC)
Procedure: Chromatographic conditions: Octadecylsilane-bonded silica gel was used as the filler (Waters XBridge® C18, 4.6×150 mm, […] chromatographic column or chromatographic column with equivalent performance); a 0.1 vol % trifluoroacetic acid solution was used as mobile phase A, and a solution of 0.1 vol % trifluoroacetic acid in acetonitrile was used as mobile phase B; isocratic elution was performed with mobile phase A-mobile phase B (70:30); the detection wavelength was 232 nm, the flow rate was 1.0 mL/min, the column temperature was 40° C., the sample injection volume was 10 μL, and the run time was 10 min.
as §1

[4] = Related substances (HPLC), compatibility and stability
Procedure: Gradient elution was performed according to the table below, with a run time of 50.0 min and a post-run time of 5 min.
as §1

[5] = Micromeritic properties of powders (angle of repose, bulk density, tap density, Carr index, flowability)
[6] = API of the capsule batch of the same table line

## C=CC(=O)N[C@H]1CCOC[C@H]1Nc1ncc2cc(-c3c(F)c(OC)cc(OC)c3F)nc(N3CC(C)(OC)C3)c2n1 [Test 0]
[1]
  Particle size distribution D50: 155.607 μm
  Particle size distribution D90: 333.563 μm

## C=CC(=O)N[C@H]1CCOC[C@H]1Nc1ncc2cc(-c3c(F)c(OC)cc(OC)c3F)nc(N3CC(C)(OC)C3)c2n1 [Test 3]
[1]
  Particle size distribution D10: 1.298 μm
  Particle size distribution D50: 8.279 μm
  Particle size distribution D90: D90 = 43.137 μm

## C=CC(=O)N[C@H]1CCOC[C@H]1Nc1ncc2cc(-c3c(F)c(OC)cc(OC)c3F)nc(N3CC(C)(OC)C3)c2n1 [Test 2]
[1]
  Particle size distribution D10: 1.509 μm
  Particle size distribution D50: 9.682 μm
  Particle size distribution D90: D90 = 63.594 μm

## C=CC(=O)N[C@H]1CCOC[C@H]1Nc1ncc2cc(-c3c(F)c(OC)cc(OC)c3F)nc(N3CC(C)(OC)C3)c2n1 [Test 1]
[1]
  Particle size distribution D10: 2.168 μm
  Particle size distribution D50: 14.763 μm
  Particle size distribution D90: D90 = 125.775 μm

## C=CC(=O)N[C@H]1CCOC[C@H]1Nc1ncc2cc(-c3c(F)c(OC)cc(OC)c3F)nc(N3CC(C)(OC)C3)c2n1.Cc1ccc(S(=O)(=O)O)cc1.O [Active pharmaceutical ingredient, p-toluenesulfonate monohydrate of the compound of formula (I)]
[2]; 25° C./92.5% RH, 10 d
  Percentage change in hygroscopic weight gain: 0.6%
[2]; 25° C./92.5% RH, 30 d
  Percentage change in hygroscopic weight gain: 0.3%
[2]; 40° C./75% RH, 10 d
  Percentage change in hygroscopic weight gain: 0.2%
[2]; 40° C./75% RH, 30 d
  Percentage change in hygroscopic weight gain: −0.3%
[2]; API alone
  Hygroscopicity: not highly hygroscopic
[3]; 0 d
  Content: 100.5%
[3]; 25° C./92.5% RH, 30 d
  Content: 99.5%
[3]; 40° C./75% RH, 30 d
  Content: 98.6%
[3]; 60° C., 30 d
  Content: 102.5%
[3]; Light exposure, 10 d
  Content: 96.5%
[4]; 0 d
  Related substance (%): 0.66%
[4]; 25° C./92.5% RH (open), 30 d
  Related substance (%): 0.98%
[4]; 25° C./92.5% RH (open), 30 d, listed as active pharmaceutical ingredient
  Related substance (%): slight increase in impurities
[4]; 40° C./75% RH (open), 30 d
  Related substance (%): 0.58%
[4]; 40° C./75% RH (open), 30 d, listed as active pharmaceutical ingredient
  Related substance (%): remained stable
[4]; 60° C. (open), 30 d
  Related substance (%): 0.66%
[4]; 60° C. (open), 30 d, listed as active pharmaceutical ingredient
  Related substance (%): remained stable
[4]; API
  RRT = 0.27 related substance content: <0.05%
  RRT = 0.44 related substance content: 0.09%
  RRT = 0.56 related substance content: <0.05%
  RRT = 0.71 related substance content: 0.05%
  RRT = 0.74 related substance content: 0.06%
  RRT = 0.88 related substance content: 0.06%
  RRT = 0.97 related substance content: <0.05%
  RRT = 1.05 related substance content: <0.05%
  RRT = 1.09 related substance content: <0.05%
  RRT = 1.27 related substance content: 0.20%
  RRT = 2.00 related substance content: 0.14%
  Related substance: 0.60%
[4]; [6]
  API impurities: Single impurity: Single impurity < 0.05%
  API impurities: Total impurities: Total impurities < 0.05%
[4]; Light exposure (open), 10 d
  Related substance (%): 0.64%
[4]; Light exposure (open), 10 d, listed as active pharmaceutical ingredient
  Related substance (%): remained stable
[4]; after 10 days of exposure to light
  single impurity (RRT=0.44): 0.07%
[4]; before exposure to light
  single impurity (RRT=0.44): < 0.05%
[5]
  Angle of repose: 44.66 °
  Bulk density: 0.447 g/mL
  Carr index: 40%
  Tap density: 0.740 g/mL
